18 molecules from patent US20240300927A1, “AMIDES AS CBL-B INHIBITORS” (Genentech, Inc., priority 2021, published 2024) can be followed below.

Each structure is given as a SMILES string.

One test has as its target Cbl-b (Homo sapiens (Human), UniProt Q13191). The test is described as follows: Cbl-b LCK Ub TR-FRET assay (Cbl-b Lck HTRF). The class given is biochemical. Particulars: for (fold-selectivity): Cbl-b and C-Cbl selectivity, Lck HTRF; for IC50: read-out: Cbl-b Lck HTRF IC50. Here is the method:
(§1) Compounds were 3-fold serially diluted in DMSO in a 384-well polypropylene plate (#P-05525-BC; Labcyte) to generate a source plate with 10 concentrations of each compound, top concentration=2 mM. 80 nL of DMSO or compounds were transferred to each well of a black 384-well ProxiPlate (#6008260; PerkinElmer) using a Labcyte Echo. 1× assay buffer (50 mM HEPES pH7.0, 100 mM NaCl, 0.01% BSA, 0.01% Triton-X100, 1 mM DTT), 2× enzyme solution (16 nM Biotin-Cbl-b or 12 nM Biotin-c-Cbl in 1× assay buffer), 2× kinase mixture (120 nM His-LCK, 1 mM ATP, 10 mM MgCl2 in assay buffer) and 2.33× detection mixture (4.66× solution 1: 163 nM Anti-HA-D2 antibody (#610HADAB; PerkinElmer), 27.96 nM Streptavidin-EU (#AD0062; PerkinElmer), 1.398 mM EDTA in 1× assay buffer+4.66× solution 2: 2.796 μM UBE2D2/Methylated-HA-Ubiquitin thioester adduct (BostonBiochem) in 1× assay buffer) were prepared. 4 μL of 2× enzyme solution was added to each well containing compound, briefly centrifuged to mix, and incubated for 60 min at room temperature. 4 μL of 2× kinase mixture was added, briefly centrifuged to mix, and incubated for 90 min. at room temperature. 6 μL of detection mixture was added to all wells and briefly centrifuged before incubating for 20 min at room temperature. Plates were read for TR-FRET using an Envision at excitation 340 nm, emission at 615 and 665 nm, 4 flashes per well. IC50 was generated using no LCK as the low control and DMSO as the high control.
(§2) Cbl-b Lck HTRF data in Table 3 is measured according to Example 25 herein; C-cbl Lck HTRF data is measured according to Example 25 herein.
(§3) SPR and the LCK biochemical assay are orthogonal assays: SPR is a protein binding assay while the LCK assay is an enzyme activity assay. SPR measures compound binding affinity to CBL-B/C-CBL, whereas LCK assay measures compound inhibition of CBL-B/C-CBL ubiquitin transfer activity.
Background: In TR-FRET formats the signal depends on donor and acceptor labels being close together.

A further test deals with c-Cbl (Homo sapiens (Human), UniProt P22681). The test is described as follows: C-cbl LCK Ub TR-FRET assay (C-cbl Lck HTRF). The class given is biochemical. Here is the method:
as §1, §2, §3

c-Cbl, sequence (P22681 47-435): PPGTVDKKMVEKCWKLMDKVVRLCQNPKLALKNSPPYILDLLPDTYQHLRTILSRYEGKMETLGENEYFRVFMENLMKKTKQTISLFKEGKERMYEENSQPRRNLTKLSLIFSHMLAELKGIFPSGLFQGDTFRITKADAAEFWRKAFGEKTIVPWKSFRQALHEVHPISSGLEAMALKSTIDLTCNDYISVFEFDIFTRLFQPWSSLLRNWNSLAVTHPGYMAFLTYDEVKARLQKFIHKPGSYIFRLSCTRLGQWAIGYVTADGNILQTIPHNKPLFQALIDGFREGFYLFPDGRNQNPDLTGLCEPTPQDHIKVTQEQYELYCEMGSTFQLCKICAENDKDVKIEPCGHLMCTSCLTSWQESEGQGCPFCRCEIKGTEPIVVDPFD
Cbl-b, sequence (Q13191 40-426): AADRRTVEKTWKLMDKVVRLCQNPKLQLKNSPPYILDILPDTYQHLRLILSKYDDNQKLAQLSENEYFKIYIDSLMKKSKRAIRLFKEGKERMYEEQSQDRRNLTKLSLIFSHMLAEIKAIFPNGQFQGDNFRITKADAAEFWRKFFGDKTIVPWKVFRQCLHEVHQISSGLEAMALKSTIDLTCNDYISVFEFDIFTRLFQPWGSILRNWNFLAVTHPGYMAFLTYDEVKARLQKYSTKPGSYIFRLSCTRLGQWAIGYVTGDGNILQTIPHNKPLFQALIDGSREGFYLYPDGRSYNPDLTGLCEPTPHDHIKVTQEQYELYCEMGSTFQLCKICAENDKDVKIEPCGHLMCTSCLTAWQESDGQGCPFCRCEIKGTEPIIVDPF

One may read the IC50 as the concentration needed to halve the response being measured. As to `C[C@H](Cc1nncn1C)c1cccc(NC(=O)c2nc(C(F)(F)F)cn2C)c1` [Compound 121, (R)-1-methyl-N-(3-(1-(4-methyl-4H-1,2,4-triazol-3-yl)propan-2-yl)phenyl)-4-(trifluoromethyl)-1H-imidazole-2-carboxamide], at Cbl-b, the “(fold-selectivity)” value was “(0.67x)” and the IC50 turned out to be 4400 nM. At c-Cbl, this molecule showed an IC50 of 2900 nM.
In the case of `Cn1cnnc1CC1(c2cccc(NC(=O)c3cccc(C(F)(F)F)n3)c2)CC(F)(F)C1` [Compound 16, N-(3-(3,3-difluoro-1-((4-methyl-4H-1,2,4-triazol-3-yl)methyl)cyclobutyl)phenyl)-6-(trifluoromethyl)picolinamide], at Cbl-b, the “(fold-selectivity)” value was “(1.6x)” and the IC50 turned out to be 260 nM. The molecule also returned an IC50 against c-Cbl of 410 nM.
For the molecule `Cn1cnnc1[C@@H](F)C1(c2cccc(NC(=O)c3cc(CN4CC(C)(F)C4)cc(C4CC4)n3)c2)COC1` [Compound 8, (S)-6-cyclopropyl-N-(3-(3-(fluoro(4-methyl-4H-1,2,4-triazol-3-yl)methyl)oxetan-3-yl)phenyl)-4-((3-fluoro-3-methylazetidin-1-yl)methyl)picolinamide], at Cbl-b, the “(fold-selectivity)” value was “(2.0x)” and the IC50 turned out to be 30 nM. The molecule also yielded an IC50 at c-Cbl of 60 nM.
With `Cn1cnnc1[C@@H](F)C1(c2cccc(NC(=O)c3cc(CN)cc(C(F)(F)F)n3)c2)COC1.O=CO` [Compound 65, (S)-4-(aminomethyl)-N-(3-(3-(fluoro(4-methyl-4H-1,2,4-triazol-3-yl)methyl)oxetan-3-yl)phenyl)-6-(trifluoromethyl)picolinamide formate], on Cbl-b, the “(fold-selectivity)” value is “(1.2x)” and the IC50 stood at 200 nM. Moreover, at c-Cbl, the IC50 turned out to be 230 nM.
`C[C@H](c1cc(C(=O)Nc2cccc(C3([C@@H](F)c4nncn4C)COC3)c2)nc(C2CC2)c1)N1CC(C)(F)C1` [Compound 113, 6-cyclopropyl-N-(3-(3-((R)-fluoro(4-methyl-4H-1,2,4-triazol-3-yl)methyl)oxetan-3-yl)phenyl)-4-((R)-1-(3-fluoro-3-methylazetidin-1-yl)ethyl)picolinamide]: at Cbl-b, the “(fold-selectivity)” value is “(1.2x)” and the half-maximal inhibitory concentration (IC50) was determined as 21 nM. The molecule further returned an IC50 against c-Cbl of 27 nM.
For the molecule `CC(C)[C@H]1CN(C)CCN1Cc1cc(C(=O)Nc2cccc(C3([C@@H](F)c4nncn4C)CC(F)(F)C3)c2)nc(C2CC2)c1` [Compound 225, 6-cyclopropyl-N-(3-(3,3-difluoro-1-((R)-fluoro(4-methyl-4H-1,2,4-triazol-3-yl)methyl)cyclobutyl)phenyl)-4-(((S)-2-isopropyl-4-methylpiperazin-1-yl)methyl)picolinamide], on Cbl-b, the “(fold-selectivity)” value was “(1.2x)” and the IC50 stood at 7.1 nM. At c-Cbl, 8.4 nM corresponded to half-maximal inhibition (IC50).
Consider `C[C@@H](c1cc(C(=O)Nc2cccc(C3([C@H](F)c4nncn4C)COC3)c2)nc(C2CC2)c1)N1CC(C)(F)C1` [Compound 114, 6-cyclopropyl-N-(3-(3-((S)-fluoro(4-methyl-4H-1,2,4-triazol-3-yl)methyl)oxetan-3-yl)phenyl)-4-((S)-1-(3-fluoro-3-methylazetidin-1-yl)ethyl)picolinamide], for which the “(fold-selectivity)” value on Cbl-b was “(0.76x)”. Further, the figures for the IC50 at Cbl-b and against c-Cbl were 290 nM and 220 nM, respectively.
For the molecule `Cn1cnnc1[C@@H](F)C1(c2cccc(NC(=O)c3cc(CN4CC(C)(F)C4)cc(C(F)(F)F)n3)c2)COC1` [Compound 61, (S)-N-(3-(3-(fluoro(4-methyl-4H-1,2,4-triazol-3-yl)methyl)oxetan-3-yl)phenyl)-4-((3-fluoro-3-methylazetidin-1-yl)methyl)-6-(trifluoromethyl)picolinamide], on Cbl-b, the “(fold-selectivity)” value is recorded as “(2.3x)” and the IC50 came out at 180 nM. In addition, at c-Cbl, the IC50 is 420 nM.
The matching figures for `Cn1cnnc1CC1(c2cccc(NC(=O)c3cc(CN4CC(C)(CO)C4)cc(C4CC4)n3)c2)CC(F)(F)C1` [Compound 496, 6-cyclopropyl-N-(3-(3,3-difluoro-1-((4-methyl-4H-1,2,4-triazol-3-yl)methyl)cyclobutyl)phenyl)-4-((3-(hydroxymethyl)-3-methylazetidin-1-yl)methyl)picolinamide]: “(0.76x)”, 13 nM and 10 nM.
Turning to `C[C@@H](c1cc(C(=O)Nc2cccc(C3([C@H](F)c4nncn4C)COC3)c2)nc(C2CC2)c1)N1CCC2(CC2)C1` [Compound 24, 4-((S)-1-(5-azaspiro[2.4]heptan-5-yl)ethyl)-6-cyclopropyl-N-(3-(3-((S)-fluoro(4-methyl-4H-1,2,4-triazol-3-yl)methyl)oxetan-3-yl)phenyl)picolinamide], at Cbl-b, the “(fold-selectivity)” value was “(0.92x)”. For the same molecule, the figures for the IC50 on Cbl-b and at c-Cbl were 63 nM and 58 nM, respectively.
For `Cn1cnnc1CC1(c2cccc(NC(=O)c3cc(CN4CCC5(CC5)C4)cc(C(F)(F)F)n3)c2)COC1` [Compound 98, 4-((5-azaspiro[2.4]heptan-5-yl)methyl)-N-(3-(3-((4-methyl-4H-1,2,4-triazol-3-yl)methyl)oxetan-3-yl)phenyl)-6-(trifluoromethyl)picolinamide], the “(fold-selectivity)” value at Cbl-b was “(1.8x)”. Besides, the values for the IC50 on Cbl-b and on c-Cbl were 44 nM and 78 nM, respectively.
For `Cn1cnnc1[C@H](F)[C@@](C)(F)c1cccc(NC(=O)c2cc(CN3CCC4(CC4)C3)cc(C3CC3)n2)c1` [Compound 36, 4-(5-azaspiro[2.4]heptan-5-ylmethyl)-6-cyclopropyl-N-(3-((1S,2S)-1,2-difluoro-1-(4-methyl-4H-1,2,4-triazol-3-yl)propan-2-yl)phenyl)picolinamide] the same measures were “(1.8x)”, 140 nM and 240 nM.
`Cn1cnnc1[C@@H](F)C(C)(F)c1cccc(NC(=O)c2cc(CN3CC(C)(F)C3)nc(C3CC3)n2)c1` (stereo in doubt) [Compound 45, 2-cyclopropyl-N-(3-((1R,2S)-1,2-difluoro-1-(4-methyl-4H-1,2,4-triazol-3-yl)propan-2-yl)phenyl)-6-((3-fluoro-3-methylazetidin-1-yl)methyl)pyrimidine-4-carboxamide]: on Cbl-b, the “(fold-selectivity)” value is “(1.4x)” and the IC50 amounted to 12000 nM. Moreover, half-maximal inhibition on c-Cbl (IC50) required 16000 nM.
Regarding `CN(C)Cc1cc(C(=O)Nc2cccc(C3(Cc4nncn4C)COC3)c2)nc(C(F)(F)F)c1` [Compound 67, 4-((dimethylamino)methyl)-N-(3-(3-((4-methyl-4H-1,2,4-triazol-3-yl)methyl)oxetan-3-yl)phenyl)-6-(trifluoromethyl)picolinamide], on Cbl-b, the “(fold-selectivity)” value is on record as “(1.6x)” and the IC50 was found to be 210 nM. The molecule also displayed an IC50 against c-Cbl of 340 nM.
The matching figures for `Cn1cnnc1[C@@H](F)[C@]1(c2cccc(NC(=O)c3cccc(C(F)(F)F)n3)c2)CCO1` [Compound 504, N-(3-((R)-2-((R)-fluoro(4-methyl-4H-1,2,4-triazol-3-yl)methyl)oxetan-2-yl)phenyl)-6-(trifluoromethyl)picolinamide]: “(0.55x)”, 16000 nM and 8700 nM.
As to `C[C@H](Cc1nncn1C)c1cccc(NC(=O)c2nc(C3CC3)c[nH]2)c1` [Compound 122, (R)-4-cyclopropyl-N-(3-(1-(4-methyl-4H-1,2,4-triazol-3-yl)propan-2-yl)phenyl)-1H-imidazole-2-carboxamide], at Cbl-b, the “(fold-selectivity)” value is recorded as “(0.79x)” and the IC50 was found to be 2800 nM. The molecule further gave an IC50 against c-Cbl of 2200 nM.
For `CC(C)[C@H]1CN(C)CCN1Cc1cc(C(=O)Nc2cccc(C3([C@H](F)c4nncn4C)COC3)c2)nc(C2CC2)c1` [Compound 500, 6-cyclopropyl-N-(3-(3-((S)-fluoro(4-methyl-4H-1,2,4-triazol-3-yl)methyl)oxetan-3-yl)phenyl)-4-(((S)-2-isopropyl-4-methylpiperazin-1-yl)methyl)picolinamide] the same measures were “(0.82x)”, 9.9 nM and 8 nM.
In the case of `Cn1cnnc1[C@H](F)C1(c2cccc(NC(=O)c3cc(CN4CC(C)(F)C4)nc(C4CC4)n3)c2)COC1` [Compound 20, (R)-2-cyclopropyl-N-(3-(3-(fluoro(4-methyl-4H-1,2,4-triazol-3-yl)methyl)oxetan-3-yl)phenyl)-6-((3-fluoro-3-methylazetidin-1-yl)methyl)pyrimidine-4-carboxamide], on Cbl-b, the “(fold-selectivity)” value was “(1.3x)” and the IC50 came to 270 nM. Besides, at c-Cbl, the IC50 stood at 350 nM.
